Laboratory results published in patent US20120034608A1, “MICRORNA AS A BIOMARKER OF PANCREATIC ISLET BETA-CELL ENGAGEMENT” (Merck Sharp & Dohme Corp., priority 2009, published 2012).

Tested on: C57/Bl6 mice
Experiment: plasma miRNA levels in lean mice after a single injection
Format: in vivo, mouse
Settings: C57/Bl6 mice (FIG. 5 legend)
Method: The plasma levels of miR-132 and miR-212 were measured in lean mice treated with an oxyntomodulin (OXM) derivative (a long-acting GLP-1 receptor agonist disclosed in Published International Application No. WO2007/100535) before and then 24-hours and 48-hours after a single injection of the OXM derivative. Groups of 16 weeks old mice were dosed with 30 mpk OXM derivative (s.c.) or vehicle (3% mannitol, 75 mM NaCl, 20 mM sodium acetate, pH 5) and approximately 50 μL blood each were collected into EDTA tubes before and 24 hours and 48 hours post-dosing. All the blood samples were immediately placed on ice and plasma were prepared within one hour and stored at −80° C. RNA extraction and TAQMAN RT-PCR analysis were as described in Example 3. 50 μL aliquots of the plasma samples were thawed on ice and 2× Denaturing Solution (Ambion) was added. To allow for normalization for sample variations, three C. elegans miRNAs, cel-miR39, cel-miR54, and cel-miR-238, were added at a final concentration of 20, 200, and 2000 fM (sequence information according to miRBase). miR132, miR-212, and miR-375 expression levels were normalized to spiked-in cel-miR39.

## GLP-1 (7-37) amide
  plasma levels of miR-132: increased
  plasma levels of miR-212: increased
